Experiment [1] has as its system maternal sera (antibodies). Nature of the experiment: ELISA peptide-binding of maternal sera (Example 6). Also noted: species or system human. To be noted: for Number of Non-Transmitters which bound to peptide / Percent of Non-Transmitters which bound to peptide: N = 12; for Number of Transmitters which bound to peptide / Percent of Transmitters which bound to peptide: N = 4. The text has this:
A total of 86 maternal sera samples obtained from patients of the Hospital of the University of Pennsylvania during the third trimester of pregnancy were used in this study 58 (67%) were non-transmitters and 28 (33%) were transmitters. This is approximately consistent with the national average (i.e. a rate of transmission between 25-30%). Transmission status was based upon serological or molecular diagnosis of children (at an age of greater than 15 months) born to these mothers. Because of the constraints on the volume of serum available for many of these samples, not all sera were analyzed with all the peptides. However, each sera sample was run with at least 40 peptides.
These peptides are of an average length of 16 amino acids and covered the entire external as well as the transmembrane glycoprotein of HIV-1. Peptide binding was analyzed by ELISA essentially as described in Example 3.
The results of one study, using some of the peptides identified above among others, is provided in Table 12, which illustrates the number and percent of non-transmitters which bound to the tested peptide. The percentage designation refers to the percentage of sera samples which bound to a particular peptide. A value of greater than 0% means that at least one of the samples bound to the particular peptides.

Experiment [2] has as its system maternal HIV+ sera (antibodies). The experiment can be described thus: RIA / ELISA binding of maternal HIV+ sera to gp120 and gp41 peptides (Example 3). Also noted: species or system human. The essentials: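 Maternal sera, diluted 1:50 and 1:500, were bound overnight at 4°C to peptides immobilized at 10 μg/ml (pH 9.6 carbonate) and blocked with 1% BSA. Read-out was ¹²⁵I-labelled anti-human IgG counts or HRP-TMB OD450. Signal with peptide minus without was expressed relative to seronegative serum.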
Background: An ELISA detects its analyte on a solid surface through an enzyme-linked reagent.

For “CIVQQQNNLLRAI-EAQQHLLQLTVWGIKQL (CIVQQQNNLLRAIEAQQHLLQLTVWGIKQL) [Peptide 560]”, the “Number of Non-Transmitters which bound to peptide” value in experiment [1] is recorded as 0. In addition, in experiment [1], the “Percent of Non-Transmitters which bound to peptide” value was 0%. Also, the “Number of Transmitters which bound to peptide” value in experiment [1] turned out to be 0. The “Percent of Transmitters which bound to peptide” value in experiment [1] was 0%. Besides, the “Binding of maternal HIV+ serum to peptide (sera/NHS ratio)” value (“Binding … (sera/NHS ratio)” for short) in experiment [2] (Serum No. 1, Non-Transmission Group) was “+ (which value is between 2 to 3)”; in experiment [2] (Serum No. 2, Non-Transmission Group) it was “- (specific OD450 or cpm of sera sample binding to peptide divided by the specific OD450 or cpm of NHS sample binding to peptide, which value is less than 2)”; in experiment [2] (Serum No. 3, Non-Transmission Group), “- (specific OD450 or cpm of sera sample binding to peptide divided by the specific OD450 or cpm of NHS sample binding to peptide, which value is less than 2)”; in experiment [2] (Serum No. 4, Transmission Group), “- (specific OD450 or cpm of sera sample binding to peptide divided by the specific OD450 or cpm of NHS sample binding to peptide, which value is less than 2)”; in experiment [2] (Serum No. 5, Transmission Group) it was “- (specific OD450 or cpm of sera sample binding to peptide divided by the specific OD450 or cpm of NHS sample binding to peptide, which value is less than 2)”; in experiment [2] (Serum No. 6, Non-Transmission Group), “- (specific OD450 or cpm of sera sample binding to peptide divided by the specific OD450 or cpm of NHS sample binding to peptide, which value is less than 2)”. The “Binding … (sera/NHS ratio)” value in experiment [2] (Serum No. 7, Non-Transmission Group) is “- (specific OD450 or cpm of sera sample binding to peptide divided by the specific OD450 or cpm of NHS sample binding to peptide, which value is less than 2)”; in experiment [2] (Serum No. 8, Non-Transmission Group) it was “- (specific OD450 or cpm of sera sample binding to peptide divided by the specific OD450 or cpm of NHS sample binding to peptide, which value is less than 2)”; in experiment [2] (Serum No. 9, Non-Transmission Group), “- (specific OD450 or cpm of sera sample binding to peptide divided by the specific OD450 or cpm of NHS sample binding to peptide, which value is less than 2)”; in experiment [2] (Serum No. 10, Transmission Group), “- (specific OD450 or cpm of sera sample binding to peptide divided by the specific OD450 or cpm of NHS sample binding to peptide, which value is less than 2)”; in experiment [2] (Serum No. 11, Non-Transmission Group), “- (specific OD450 or cpm of sera sample binding to peptide divided by the specific OD450 or cpm of NHS sample binding to peptide, which value is less than 2)”; in experiment [2] (Serum No. 12, Non-Transmission Group), “- (specific OD450 or cpm of sera sample binding to peptide divided by the specific OD450 or cpm of NHS sample binding to peptide, which value is less than 2)”. In addition, the “Binding … (sera/NHS ratio)” value in experiment [2] (Serum No. 13, Transmission Group) is on record as “- (specific OD450 or cpm of sera sample binding to peptide divided by the specific OD450 or cpm of NHS sample binding to peptide, which value is less than 2)”; in experiment [2] (Serum No. 14, Transmission Group) it was “- (specific OD450 or cpm of sera sample binding to peptide divided by the specific OD450 or cpm of NHS sample binding to peptide, which value is less than 2)”; in experiment [2] (Serum No. 15, Transmission Group) it was “- (specific OD450 or cpm of sera sample binding to peptide divided by the specific OD450 or cpm of NHS sample binding to peptide, which value is less than 2)”; in experiment [2] (Serum No. 16, Non-Transmission Group) it was “- (specific OD450 or cpm of sera sample binding to peptide divided by the specific OD450 or cpm of NHS sample binding to peptide, which value is less than 2)”; in experiment [2] (Serum No. 17, Non-Transmission Group), “- (specific OD450 or cpm of sera sample binding to peptide divided by the specific OD450 or cpm of NHS sample binding to peptide, which value is less than 2)”; in experiment [2] (Serum No. 18, Non-Transmission Group), “- (specific OD450 or cpm of sera sample binding to peptide divided by the specific OD450 or cpm of NHS sample binding to peptide, which value is less than 2)”. Moreover, the “Binding … (sera/NHS ratio)” value was “- (specific OD450 or cpm of sera sample binding to peptide divided by the specific OD450 or cpm of NHS sample binding to peptide, which value is less than 2)” in experiment [2] (Serum No. 19, Transmission Group) and “- (specific OD450 or cpm of sera sample binding to peptide divided by the specific OD450 or cpm of NHS sample binding to peptide, which value is less than 2)” in experiment [2] (Serum No. 20, Non-Transmission Group).

Take VVQREKRAVGIG [Peptide 510]: in experiment [1], the “Number of Non-Transmitters which bound to peptide” value stood at 4, the “Number of Transmitters which bound to peptide” value is listed as 0 and the “Percent of Transmitters which bound to peptide” value was 0%.

Turning to “WSK-1: gp120 peptide, amino acids 378-394, SEQ ID NO:115 (GGEFFYCNSTQLFNSTW)”, in experiment [1], the “Number of Non-Transmitters which bound to peptide” value is on record as 0, the “Percent of Non-Transmitters which bound to peptide” value was 0%, the “Number of Transmitters which bound to peptide” value was 0 and the “Percent of Transmitters which bound to peptide” value came out at 0%.

Consider YNKRKRIHIQRGPGRAFYTTKNII [AIDS-PND], for which, in experiment [1] (Example 6), the “Correlation of peptide binding with non-transmitters (in words)” value is on record as “selectively correlate with non-transmitters” and the “Fold binding, non-transmitters vs transmitters” value was “at least two fold greater”. Also, in experiment [1], the “Number of Non-Transmitters which bound to peptide” value is recorded as 7, the “Percent of Non-Transmitters which bound to peptide” value was determined as 58.3%, the “Number of Transmitters which bound to peptide” value came to 1 and the “Percent of Transmitters which bound to peptide” value came to 25%. Further, the “Percent of Non-Transmitters which bound to peptide” value in experiment [1] (listed as AID-PND) is reported as “greater than 50%”.

Turning to “p41-20: gp41 peptide, amino acids 644-663, HIV strain IIIB, SEQ ID NO: 154 (SLIEESQNQQEKNEQELLEL)”, in experiment [1], the “Number of Non-Transmitters which bound to peptide” value is given as 2, the “Percent of Non-Transmitters which bound to peptide” value amounted to 16.7%, the “Number of Transmitters which bound to peptide” value is listed as 0 and the “Percent of Transmitters which bound to peptide” value came out at 0%.

The values above are taken from US5556744A, “Methods and compositions for diagnosing and treating certain HIV infected patients” (The Trustees of the University of Pennsylvania, priority 1994, dated 1996).
